For this data set the following is noted: 20-membered ring.
The mark [1] stands for this setting: disulfide bond, K3[Fe(CN)6]/NH3 pH 7.5-8, water.

Ring closure, yield after HPLC data for 28 compounds are collected here from patent US6511961B1, “Cyclic peptides and medicinal use thereof” (Toray Industries, Inc., priority 1997, dated 2003).

Like-named read-outs stand apart in the source and are kept apart here.

For the setting “from H-Cys(Acm)-Ile-Asp-Ala(2-Naph)-Leu-Cys(Acm)-OH, disulfide bond, AgOTf/anisole/TFA, then DMSO/HCl, 50% DMSO-1N HCl, 2 steps”, `CC[C@H](C)[C@@H]1NC(=O)[C@@H](N)CSSC[C@@H](C(=O)O)NC(=O)[C@H](CC(C)C)NC(=O)[C@H](Cc2ccc3ccccc3c2)NC(=O)[C@H](CC(=O)O)NC1=O` [C*IDAla(2-Naph)LC*] showed a ring closure, yield after HPLC of 38%.
The compound `CC[C@H](C)[C@@H]1NC(=O)[C@H](c2ccccc2)NC(=O)[C@H](CCS(C)(=O)=O)NC(=O)[C@H](C2CCCCC2)NC(=O)[C@@H](N)CSSC[C@@H](C(=O)O)NC1=O` [C*ChgMet(O2)PhgIC*] returned a ring closure, yield after HPLC (from H-Cys(Acm)-Chg-Met(O2)-Phg-Ile-Cys(Acm)-OH, disulfide bond, AgOTf/anisole/TFA, then DMSO/HCl, 50% DMSO-1N HCl, 2 steps) of 3%.
Where the note is “from H-Pen(Acm)-Ile-Asp-His-Leu-Cys(Acm)-OH, disulfide bond, AgOTf/anisole/TFA, then DMSO/HCl, 50% DMSO-1N HCl, 2 steps”, `CC[C@H](C)[C@@H]1NC(=O)[C@@H](N)C(C)(C)SSC[C@@H](C(=O)O)NC(=O)[C@H](CC(C)C)NC(=O)[C@H](Cc2c[nH]cn2)NC(=O)[C@H](CC(=O)O)NC1=O` [Pen*IDHLC*] had a ring closure, yield after HPLC of 30%.
Consider `CC[C@H](C)[C@@H]1NC(=O)[C@@H](N)CSSC[C@@H](C(=O)O)NC(=O)[C@H](CC(C)C)NC(=O)[C@H](Cc2c[nH]cn2)NC(=O)[C@H](Cc2ccc(O)cc2)NC1=O` [C*IYHLC*], for which the ring closure, yield after HPLC (from H-Cys(Acm)-Ile-Tyr-His-Leu-Cys(Acm)-OH, disulfide bond, AgOTf/anisole/TFA, then DMSO/HCl, 50% DMSO-1N HCl, 2 steps) came to 52%.
In the case of `CC[C@@H](C)[C@H]1NC(=O)[C@@H](N)CSSC[C@@H](C(=O)O)NC(=O)[C@H](CC(C)C)NC(=O)[C@H](Cc2c[nH]cn2)NC(=O)[C@H](CC(=O)O)NC1=O` [C*dIDHLC*], the ring closure, yield after HPLC (from H-Cys(Acm)-dIle-Asp-His-Leu-Cys(Acm)-OH, disulfide bond, AgOTf/anisole/TFA, then DMSO/HCl, 50% DMSO-1N HCl, 2 steps) is 72%.
For the compound `CC(C)C[C@@H]1NC(=O)[C@H](c2ccccc2)NC(=O)[C@H](CCS(C)(=O)=O)NC(=O)[C@H](C2CCCCC2)NC(=O)[C@@H](N)CSSC[C@H](C(=O)O)NC1=O` [C*ChgMet(O2)PhgLdC*], for the setting “from H-Cys(Acm)-Chg-Met(O2)-Phg-Leu-dCys(Acm)-OH, disulfide bond, AgOTf/anisole/TFA, then DMSO/HCl, 50% DMSO-1N HCl, 2 steps”, the ring closure, yield after HPLC came to 42%.
On to C*IDSLC*, for which the ring closure, yield after HPLC under setting [1] came to 62%.
`CC[C@H](C)[C@@H]1NC(=O)[C@@H](N)CSSC[C@@H](C(=O)O)NC(=O)[C@H](CC(C)C)NC(=O)[C@H](CC2CCCCC2)NC(=O)[C@H](CC(=O)O)NC1=O` [C*IDChaLC*]: where the note is “from H-Cys(Acm)-Ile-Asp-Cha-Leu-Cys(Acm)-OH, disulfide bond, AgOTf/anisole/TFA, then DMSO/HCl, 50% DMSO-1N HCl, 2 steps”, the ring closure, yield after HPLC amounted to 34%.
Turning to `CC[C@H](C)[C@@H]1NC(=O)[C@@H](N)CSSC[C@@H](C(=O)O)NC(=O)[C@H](c2ccccc2)NC(=O)[C@H](Cc2c[nH]cn2)NC(=O)[C@H](CC(=O)O)NC1=O` [C*IDHPhgC*], under “from H-Cys(Acm)-Ile-Asp-His-Phg-Cys(Acm)-OH, disulfide bond, AgOTf/anisole/TFA, then DMSO/HCl, 50% DMSO-1N HCl, 2 steps”, the ring closure, yield after HPLC came out at 37%.
`CC(C)C[C@@H]1NC(=O)[C@H](c2ccccc2)NC(=O)[C@H](CCS(C)(=O)=O)NC(=O)[C@H](C2CCCCC2)NC(=O)[C@@H](N)CSSC[C@@H](C(=O)O)NC1=O` [C*ChgMet(O2)PhgLC*] returned a ring closure, yield after HPLC (from H-Cys(Acm)-Chg-Met(O2)-Phg-Leu-Cys(Acm)-OH, disulfide bond, AgOTf/anisole/TFA, then DMSO/HCl, 50% DMSO-1N HCl, 2 steps) of 4%.
For the setting “disulfide bond, K3[Fe(CN)6]/NH3 pH 7.5-8, water, 0.43 mM”, C*IDYLC* came in with a ring closure, yield after HPLC of 61%.
With `CC[C@H](C)[C@@H]1NC(=O)[C@@H](N)CSSC[C@@H](C(=O)O)NC(=O)[C@H](CC(C)C)NC(=O)[C@H](c2ccccc2)NC(=O)[C@H](CC(=O)O)NC1=O` [C*IDPhgLC*], where the note is “from H-Cys(Acm)-Ile-Asp-Phg-Leu-Cys(Acm)-OH, disulfide bond, AgOTf/anisole/TFA, then DMSO/HCl, 50% DMSO-1N HCl, 2 steps”, the ring closure, yield after HPLC was 48%.
In the case of `CC(C)C[C@@H]1NC(=O)[C@H](Cc2c[nH]cn2)NC(=O)[C@H](CC(=O)O)NC(=O)[C@@H]2Cc3ccccc3CN2C(=O)[C@@H](N)CSSC[C@@H](C(=O)O)NC1=O` [C*TicDHLC*], the ring closure, yield after HPLC (from H-Cys(Acm)-Tic-Asp-His-Leu-Cys(Acm)-OH, disulfide bond, AgOTf/anisole/TFA, then DMSO/HCl, 50% DMSO-1N HCl, 2 steps) worked out at 30%.
`CC[C@H](C)[C@@H]1NC(=O)[C@@H](N)CSSC[C@@H](C(=O)O)NC(=O)[C@H](CC(C)C)NC(=O)[C@@H](Cc2c[nH]cn2)NC(=O)[C@H](CC(=O)O)NC1=O` [C*IDdHLC*] displayed a ring closure, yield after HPLC (from H-Cys(Acm)-Ile-Asp-dHis-Leu-Cys(Acm)-OH, disulfide bond, AgOTf/anisole/TFA, then DMSO/HCl, 50% DMSO-1N HCl, 2 steps) of 74%.
In turn, `CC[C@H](C)[C@@H]1NC(=O)[C@@H](N)CSSC[C@@H](C(=O)O)NC(=O)[C@H](CC(C)C)NC(=O)[C@H](Cc2c[nH]cn2)NC(=O)[C@H](CCO)NC1=O` [C*IHseHLC*] came in with a ring closure, yield after HPLC (from H-Cys(Acm)-Ile-Hse-His-Leu-Cys(Acm)-OH, disulfide bond, AgOTf/anisole/TFA, then DMSO/HCl, 50% DMSO-1N HCl, 2 steps) of 56%.
Turning to `CC[C@H](C)[C@@H]1NC(=O)[C@@H](N)CSSC[C@@H](C(=O)O)NC(=O)[C@H](CC(C)C)NC(=O)[C@@H](c2ccccc2)NC(=O)[C@H](CC(=O)O)NC1=O` [C*IDdPhgLC*], the ring closure, yield after HPLC (from H-Cys(Acm)-Ile-Asp-dPhg-Leu-Cys(Acm)-OH, disulfide bond, AgOTf/anisole/TFA, then DMSO/HCl, 50% DMSO-1N HCl, 2 steps) is 8%.
Under “from H-Cys(Acm)-Chg-Met(O2)-dHis-Leu-Cys(Acm)-OH, disulfide bond, AgOTf/anisole/TFA, then DMSO/HCl, 50% DMSO-1N HCl, 2 steps”, `CC(C)C[C@@H]1NC(=O)[C@@H](Cc2c[nH]cn2)NC(=O)[C@H](CCS(C)(=O)=O)NC(=O)[C@H](C2CCCCC2)NC(=O)[C@@H](N)CSSC[C@@H](C(=O)O)NC1=O` [C*ChgMet(O2)dHLC*] yielded a ring closure, yield after HPLC of 45%.
On to D(CO—)ChgMet(O2)dPhgLDpr(NH—), for which the ring closure, yield after HPLC (amide bond, with chain assembly) came out at 10%.
Under “from H-Cys(Acm)-Ile-Asn-His-Leu-Cys(Acm)-OH, disulfide bond, AgOTf/anisole/TFA, then DMSO/HCl, 50% DMSO-1N HCl, 2 steps”, `CC[C@H](C)[C@@H]1NC(=O)[C@@H](N)CSSC[C@@H](C(=O)O)NC(=O)[C@H](CC(C)C)NC(=O)[C@H](Cc2c[nH]cn2)NC(=O)[C@H](CC(N)=O)NC1=O` [C*INHLC*] gave a ring closure, yield after HPLC of 85%.
Compound `CC[C@H](C)[C@@H]1NC(=O)[C@@H](N)CSSC[C@@H](C(=O)O)NC(=O)[C@H](CC(C)C)NC(=O)[C@H](Cc2c[nH]cn2)NC(=O)[C@H](CC(=O)OC)NC1=O` [C*ID(OMe)HLC*] returned a ring closure, yield after HPLC (from H-Cys(Acm)-Ile-Asp(OMe)-His-Leu-Cys(Acm)-OH, disulfide bond, AgOTf/anisole/TFA, then DMSO/HCl, 50% DMSO-1N HCl, 2 steps) of 34%.
Turning to `CC(C)C[C@@H]1NC(=O)[C@H](Cc2c[nH]cn2)NC(=O)[C@H](CC(=O)O)NC(=O)[C@H](c2ccccc2)NC(=O)[C@@H](N)CSSC[C@@H](C(=O)O)NC1=O` [C*PhgDHLC*], where the note is “from H-Cys(Acm)-Phg-Asp-His-Leu-Cys(Acm)-OH, disulfide bond, AgOTf/anisole/TFA, then DMSO/HCl, 50% DMSO-1N HCl, 2 steps”, the ring closure, yield after HPLC was determined as 64%.
`CC(C)C[C@@H]1NC(=O)[C@@H](CO)NC(=O)[C@H](CC(=O)O)NC(=O)[C@@H](CC(C)C)NC(=O)[C@@H](N)CSSC[C@@H](C(=O)O)NC1=O` [C*dLDdSLC*] had a ring closure, yield after HPLC (from H-Cys(Acm)-dLeu-Asp-dSer-Leu-Cys(Acm)-OH, disulfide bond, AgOTf/anisole/TFA, then DMSO/HCl, 50% DMSO-1N HCl, 2 steps) of 62%.
Compound `CC[C@H](C)[C@@H]1NC(=O)[C@@H](N)CSSC[C@@H](C(=O)O)NC(=O)[C@H](CC(C)C)NC(=O)[C@H](Cc2c[nH]cn2)NC(=O)[C@H](CCC(=O)O)NC1=O` [C*IEHLC*] had a ring closure, yield after HPLC (from H-Cys(Acm)-Ile-Glu-His-Leu-Cys(Acm)-OH, disulfide bond, AgOTf/anisole/TFA, then DMSO/HCl, 50% DMSO-1N HCl, 2 steps) of 71%.
With `CC[C@H](C)[C@@H]1NC(=O)[C@@H](N)CSSC[C@@H](C(=O)O)NC(=O)[C@H](CC(C)C)NC(=O)[C@H](Cc2c[nH]cn2)NC(=O)[C@H](COC)NC1=O` [C*IS(OMe)HLC*], the ring closure, yield after HPLC (from H-Cys(Acm)-Ile-Ser(OMe)-His-Leu-Cys(Acm)-OH, disulfide bond, AgOTf/anisole/TFA, then DMSO/HCl, 50% DMSO-1N HCl, 2 steps) turned out to be 52%.
`CC[C@H](C)[C@@H]1NC(=O)[C@@H](NC(C)=O)CSSC[C@@H](C(=O)O)NC(=O)[C@H](CC(C)C)NC(=O)[C@H](Cc2c[nH]cn2)NC(=O)[C@H](CC(=O)O)NC1=O` [AcC*IDHLC*] returned a ring closure, yield after HPLC (from Ac-Cys(Acm)-Ile-Asp-His-Leu-Cys(Acm)-OH, disulfide bond, AgOTf/anisole/TFA, then DMSO/HCl, 50% DMSO-1N HCl, 2 steps) of 68%.
Take `CC[C@H](C)[C@@H]1NC(=O)[C@@H](N)CSSC[C@@H](C(=O)O)NC(=O)[C@H](CC(C)C)NC(=O)[C@H](Cc2ccccc2)NC(=O)[C@H](CC(=O)O)NC1=O` [C*IDFLC*]: the ring closure, yield after HPLC (from H-Cys(Acm)-Ile-Asp-Phe-Leu-Cys(Acm)-OH, disulfide bond, AgOTf/anisole/TFA, then DMSO/HCl, 50% DMSO-1N HCl, 2 steps) is 50%.
Consider C*IDTLC*, for which, under setting [1], the ring closure, yield after HPLC stood at 70%.
`CC[C@H](C)[C@@H]1NC(=O)[C@@H](N)CSSC[C@@H](C(=O)O)NC(=O)[C@@H](c2ccccc2)NC(=O)[C@H](Cc2c[nH]cn2)NC(=O)[C@H](CC(=O)O)NC1=O` [C*IDHdPhgC*]: the ring closure, yield after HPLC (from H-Cys(Acm)-Ile-Asp-His-dPhg-Cys(Acm)-OH, disulfide bond, AgOTf/anisole/TFA, then DMSO/HCl, 50% DMSO-1N HCl, 2 steps) turned out to be 37%.
